The target in one experiment is ER in MCF-7 cells (Homo sapiens (Human), UniProt P03372). Put plainly: In-cell Western (ICW) ER degradation assay in MCF-7 cells. Type of experiment: cell-based. The following applies: for DC50: MCF-7, ER degradation, read-out: MCF7 DC50.
Another experiment deals with MCF-7 cells. In words: CellTiter-Glo (CTG) cell proliferation assay in MCF-7 cells. The following applies: Homo sapiens, MCF7, 144 h, MCF-7 cell proliferation, Day 6. Type of experiment: cell-based. From the text:
CellTiter-Glo® (CTG) Assays in MCF-7 and T47D Cell Lines.
In vitro Assay: MCF-7 and T47D CTG assay
In general terms: ATP-based viability assays read luminescence as a measure of living cells.

The mark [1] stands for this setting: MCF7, read-out: MCF7 Dmax, MCF-7, maximal ER degradation, 16 hrs treatment.

pIC50: −log10 of the molar value. Where two headings read alike, the source gives them in different places. Where only a bound is given, the exact number is not on record here.

Chain of ER in MCF-7 cells (P03372 whole entry): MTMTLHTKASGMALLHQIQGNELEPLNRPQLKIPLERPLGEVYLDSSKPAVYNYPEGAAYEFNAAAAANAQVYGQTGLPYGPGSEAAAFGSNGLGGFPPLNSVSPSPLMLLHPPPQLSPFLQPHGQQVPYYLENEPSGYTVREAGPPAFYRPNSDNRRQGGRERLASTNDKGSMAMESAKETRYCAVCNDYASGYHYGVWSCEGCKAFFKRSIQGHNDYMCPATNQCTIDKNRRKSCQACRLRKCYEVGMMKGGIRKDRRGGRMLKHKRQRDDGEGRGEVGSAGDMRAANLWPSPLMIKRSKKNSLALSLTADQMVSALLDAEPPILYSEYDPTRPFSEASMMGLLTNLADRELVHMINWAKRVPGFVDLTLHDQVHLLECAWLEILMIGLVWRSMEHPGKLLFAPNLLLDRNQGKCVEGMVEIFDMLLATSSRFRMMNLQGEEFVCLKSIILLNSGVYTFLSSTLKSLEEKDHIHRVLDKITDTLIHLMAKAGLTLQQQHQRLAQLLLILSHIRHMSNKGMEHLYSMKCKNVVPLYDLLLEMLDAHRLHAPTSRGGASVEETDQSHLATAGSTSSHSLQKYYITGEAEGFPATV

Consider `COc1cc(N2CCC(CCN3CCC4(CC3)COc3c4cc(OC)c4c3CN([C@H]3CCC(=O)NC3=O)C4=O)CC2)c(F)cc1[C@@H]1c2ccc(O)cc2CC[C@@H]1c1ccccc1` [Compound A226, (S)-3-(1′-(2-(1-(2-fluoro-4-((1S,2S)-6-hydroxy-2-phenyl-1,2,3,4-tetrahydronaphthalen-1-yl)-5-methoxyphenyl)piperidin-4-yl)ethyl)-5-methoxy-6-oxo-6,8-dihydro-2H,7H-spiro[furo[2,3-e]isoindole-3,4′-piperidin]-7-yl)piperidine-2,6-dione], for which the Dmax on ER in MCF-7 cells (setting [1]) is over 75%. Moreover, at ER in MCF-7 cells (16 hrs treatment), the DC50 was under 1 nM. The pIC50 with MCF-7 cells was over 8.00.
On the same counts, the results for `O=C1CC[C@H](N2Cc3c4c(cc(Cl)c3C2=O)C2(CCN(C[C@H]3CCC5(CCN(c6ccc([C@@H]7c8ccc(O)cc8CC[C@@H]7c7ccccc7)cc6)CC5)OC3)CC2)CO4)C(=O)N1` [Compound A231, (S)-3-(5-chloro-1′-(((R)-9-(4-((1R,2S)-6-hydroxy-2-phenyl-1,2,3,4-tetrahydronaphthalen-1-yl)phenyl)-1-oxa-9-azaspiro[5.5]undecan-3-yl)methyl)-6-oxo-6,8-dihydro-2H,7H-spiro[furo[2,3-e]isoindole-3,4′-pipcridin]-7-yl)piperidine-2,6-dione] are over 75%, under 1 nM and over 8.00.
Consider `COc1cc(N2CC(CCN3CCC4(CC3)COc3cc5c(cc34)CN([C@H]3CCC(=O)NC3=O)C5=O)C2)c(F)cc1[C@@H]1c2ccc(O)cc2CC[C@@H]1c1ccccc1` [Compound A205, (S)-3-(1′-(2-(1-(2-fluoro-4-((1S,2S)-6-hydroxy-2-phenyl-1,2,3,4-tetrahydronaphthalen-1-yl)-5-methoxyphenyl)-azet-idin-3-yl)ethyl)-7-oxo-5,7-dihydro-2H,6H-spiro[furo[2,3-f]isoindole-3,4′-piperidin]-6-yl)piperidine-2,6-dione], for which, on ER in MCF-7 cells (setting [1]), the Dmax was 25 to 50%. The DC50 on ER in MCF-7 cells (16 hrs treatment) lay in the range of 1 to 10 nM. Besides, the pIC50 in the experiment on MCF-7 cells was under 7.00.
On the same counts, the results for `COC1(CCN2CCC3(CC2)COc2c3ccc3c2CN([C@H]2CCC(=O)NC2=O)C3=O)CCN(c2ccc([C@@H]3c4ccc(O)cc4CC[C@@H]3c3ccccc3)cc2)CC1` [Compound A193, (S)-3-(1′-(2-(1-(4-((1R,2S)-6-hydroxy-2-phenyl-1,2,3,4-tetra-hydronaphthalen-1-yl)phenyl)-4-methoxypiperidin-4-yl)-ethyl)-6-oxo-6,8-dihydro-2H, 7H-spiro[furo[2,3-e]isoindole-3,4′-piperidin]-7-yl)piperidine-2,6-dione] are over 75%, under 1 nM and 7.00 to 8.00.
For the molecule `COc1c([C@@H]2c3ccc(O)cc3CC[C@@H]2c2ccccc2)ccc(N2CCC3(CC2)CC(CN2CCN4c5cc6c(cc5OC[C@@H]4C2)C(=O)N([C@H]2CCC(=O)NC2=O)C6)C3)c1F` [Compound A197, (S)-3-((S)-3-((7-(2-fluoro-4-((1S,2S)-6-hydroxy-2-phenyl-1,2,3,4-tetrahydronaphthalen-1-yl)-3-methoxyphenyl)-7-aza-spiro[3.5]nonan-2-yl)methyl)-8-oxo-1,2,3,4,4a,5,8,10-octa-hydro-9H-pyrazino[1′,2′:4,5] [1,4]oxazino[2,3-f]isoindol-9-yl)piperidine-2,6-dione], the Dmax at ER in MCF-7 cells (MCF7, MCF-7, maximal ER degradation, 16 hrs treatment, read-out: MCF7 Dmax) was over 75%. Further, the DC50 on ER in MCF-7 cells (16 hrs treatment) was under 1 nM. In the experiment with MCF-7 cells, the pIC50 was 7.00 to 8.00.
Take `COc1cc(N2CC3(CC(CN4CCC5(CC4)COc4c5ccc5c4CN([C@H]4CCC(=O)NC4=O)C5=O)C3)C2)c(F)cc1[C@@H]1c2ccc(O)cc2CC[C@@H]1c1ccccc1` [Compound A184, (S)-3-(1′-((2-(2-fluoro-4-((1S, 2S)-6-hydroxy-2-phenyl-1,2,3,4-tetrahydronaphthalen-1-yl)-5-methoxyphenyl)-2-aza-spiro[3.3]heptan-6-yl)methyl)-6-oxo-6,8-dihydro-2H,7H-spiro[furo[2,3-e]isoindole-3,4′-piperidin]-7-yl)piperidine-2,6-dione]: the Dmax on ER in MCF-7 cells (setting [1]) lay in the range of 50 to 75%. Also, the pIC50 with MCF-7 cells is under 7.00.
Turning to `O=C1CC[C@H](N2Cc3cc4c(cc3C2=O)OCC42CCN(CC3CCC4(CC3)CN(c3ccc([C@@H]5c6ccc(O)cc6CC[C@@H]5c5ccccc5)cc3)C4)CC2)C(=O)N1` [Compound A178, (S)-3-(1′-((2-(4-((1R,2S)-6-hydroxy-2-phenyl-1,2,3,4-tetra-hydronaphthalen-1-yl)phenyl)-2-azaspiro[3.5]nonan-7-yl)-methyl)-7-oxo-5,7-dihydro-2H, 6H-spiro[furo[2,3-f]isoindole-3,4′-piperidin]-6-yl)piperidine-2,6-dione], the Dmax on ER in MCF-7 cells (setting [1]) is over 75%. Besides, the DC50 on ER in MCF-7 cells (16 hrs treatment) is under 1 nM. This molecule had a pIC50 in the experiment with MCF-7 cells of under 7.00.
As for `COc1cc(N2CCC3(CC2)CC(CN2CCC4(CC2)COc2c4cc(OC)c4c2CN([C@H]2CCC(=O)NC2=O)C4=O)C3)c(F)cc1[C@@H]1c2ccc(O)cc2CC[C@@H]1c1ccccc1` [Compound A222, (S)-3-(1′-((7-(2-fluoro-4-((1S,2S)-6-hydroxy-2-phenyl-1,2,3,4-tetrahydronaphthalen-1-yl)-5-methoxyphenyl)-7-azaspiro[3.5]nonan-2-yl)methyl)-5-methoxy-6-oxo-6,8-dihydro-2H,7H-spiro[furo[2,3-e]isoindole-3,4′-piperidin]-7-yl)piperidine-2,6-dione], at ER in MCF-7 cells (setting [1]), the Dmax is over 75%. Moreover, on ER in MCF-7 cells (16 hrs treatment), the DC50 is under 1 nM. For the same molecule, the pIC50 with MCF-7 cells is over 8.00.
On the same counts, the results for `COc1c([C@@H]2c3ccc(O)cc3CC[C@@H]2c2ccccc2)ccc(N2CCC3(CC2)CC(CN2CCC4(CC2)COc2cc5c(cc24)CN([C@H]2CCC(=O)NC2=O)C5=O)C3)c1F` [Compound A199, (S)-3-(1′-((7-(2-fluoro-4-((1S, 2S)-6-hydroxy-2-phenyl-1,2,3,4-tetrahydronaphthalen-1-yl)-3-methoxyphenyl)-7-aza-spiro[3.5]nonan-2-yl)methyl)-7-oxo-5,7-dihydro-2H,6H-spiro[furo[2,3-f]isoindole-3,4′-piperidin]-6-yl)piperidine-2,6-dione] are 50 to 75%, under 1 nM and over 8.00.
On the same counts, the results for `Cc1cc2c(c3c1C(=O)N([C@H]1CCC(=O)NC1=O)C3)OCC21CCN(C[C@H]2CCC3(CCN(c4ccc([C@@H]5c6ccc(O)cc6CC[C@@H]5c5ccccc5)cc4)CC3)OC2)CC1` [Compound A210, (S)-3-(1′-(((R)-9-(4-((1R,2S)-6-hydroxy-2-phenyl-1,2,3,4-tetrahydronaphthalen-1-yl)phenyl)-1-oxa-9-azaspiro[5.5]undecan-3-yl)methyl)-5-methyl-6-oxo-6,8-dihydro-2H,7H-spiro[furo[2,3-e]isoindole-3,4′-piperidin]-7-yl)piperidine-2,6-dione] are over 75%, under 1 nM and over 8.00.
On the same counts, the results for `COc1cc2c(c3c1C(=O)N([C@H]1CCC(=O)NC1=O)C3)OCC21CCN(C[C@H]2CCC3(CCN(c4ccc([C@@H]5c6ccc(O)cc6CC[C@@H]5c5ccccc5)cc4)CC3)OC2)CC1` [Compound A235, (S)-3-(1′-(((R)-9-(4-((1R,2S)-6-hydroxy-2-phenyl-1,2,3,4-tetrahydronaphthalen-1-yl)phenyl)-1-oxa-9-azaspiro[5.5]undecan-3-yl)methyl)-5-methoxy-6-oxo-6,8-dihydro-2H,7H-spiro[furo[2,3-e]isoindole-3,4′-piperidin]-7-yl)piperidine-2,6-dione] are over 75%, under 1 nM and over 8.00.

As usually defined, the Dmax is the largest share of the target that was removed. In general, DC50 refers to the midpoint of the concentration-degradation curve. A word on the pIC50: it is the negative decadic logarithm of the IC50, by convention in mol/L. A low value points to a high IC50.

Source of the values: patent US20260028354A1, “TETRAHYDRONAPHTHALENE DERIVATIVES AS ESTROGEN RECEPTOR DEGRADERS” (REGENT OF THE UNIVERSITY OF MICHIGAN, priority 2022, published 2026).
